# Experimental data taken from patent US4511574A, “N-(4-Phenyl-2-thiazolyl)carbamate derivatives” (Mitsui Toatsu Kagaku Kabushiki Kaisha, priority 1981, dated 1985).
# Where a name gives a salt, the structure may show the parent alone.
# Assays:
# [1] = tested on: adjuvant arthritis (Mycobacterium tuberculosis adjuvant); assay: Adjuvant arthritis test; assay type: in vivo, SD male rats; details: 5 mg/Kg subcutaneous, 9 times; left hind leg; average value from 16th to 20th days; * P<0.05, ** P<0.01, *** P<0.001 vs control
# Excerpt: Next, a result of tests made on immuno-modulating activity in the adjuvant arthritis test is shown.
# The adjuvant arthritis in rats caused by the injection of a Mycobacterium tuberculosis adjuvant is often utilized for a model test of chronic rheumatoid arthritis in the human.
# The mechanism of manifestation of this disease has not completely been elucidated, but it is known that the cellular immunity plays an important role. The immuno-modulating activity of the compounds according to this invention was investigated in accordance with this known adjuvant arthritis test.
# 8-Week-old SD male rats were used for the test. In 0.1 ml of fluid paraffin, 0.4 mg of dry dead cells of Mycobacterium tuberculosis were suspended, and the suspension was injected under the heel skin of the right hind leg of each rat. Each of the compounds according to this invention was subcutaneously administered 9 times in total before and after the injection of the adjuvant. Each of the compounds of the present invention was dissolved or suspended in a 0.2% solution of carboxymethylcellulose in physiological saline and administered to each rat at a dose of 5 mg per Kg of the body weight. The swollen volume of the left hind leg was measured during the period extending from the day of injection to the day of completion of the test, and the swelling ratio was calculated. For comparison, a similar test was conducted using Levamisole hydrochloride. F.t tests were carried out on the test results obtained.
# [2] = tested on: delayed hypersensitivity induced by picryl chloride; assay: Reinforcement test of delayed hypersensitivity (picryl chloride); assay type: in vivo, ICR male mice; details: 50 mg/Kg oral, simultaneously with sensitization; 24 hours after challenging; average of both pinnae of eight mice; * P<0.05, ** P<0.01 vs control
# Excerpt: This feature will hereinafter be described by way of test examples. Various test systems using animals have been routinely adopted for the determination of immunomodulating activity.
# The delayed hypersensitivity induced on a mouse when picryl chloride(2-chloro-1,3,5-trinitrobenzene) is applied onto the skin of the mouse is known as a typical cellular immunity.
# This test system was used for the reinforcement tests of the delayed hypersensitivity.
# Groups of eight ICR male mice, each having a body weight of about 30 g or so, were used for the test.
# Sensitization was effected by applying a 3% solution of picryl chloride in a 4/1 mixture of olive oil and acetone onto the shaved abdomen of each of the mice.
# Simultaneously with the sensitization, a solution or suspension of a compound according to this invention dissolved or suspended in a 0.2% solution of carboxymethyl cellulose in a physiological saline was orally administered to the mouse at a dose of 50 mg per Kg of its body weight. To each mouse of a control group, a 0.2% carboxymethylcellulose solution in a physiological saline was similarly administered.
# The delayed hypersensitivity was induced 7 days after the sensitization by pinching each of the pinnae of each mouse with a pair of forceps whose tip portions were wrapped with a felt impregnated with a 1% solution of picryl chloride in olive oil and coating the pinnae with the solution. The thickness of each pinna was measured before the challenging and 24 hours after the challenging and the ratio of increase of the thickness (average value of both of the pinnae of the eight mice) is shown in Table 1.
# For comparison, a similar test was carried out using Levamisole hydrochloride.
# F.t tests were carried out on the thus-obtained test results.
# [3] = tested on: ddY male mice; assay: Acute toxicity test through oral administration; assay type: in vivo; details: five ddY male mice per group, watched 7 days
# Excerpt: TEST EXAMPLE 3 (ACUTE TOXICITY TEST THROUGH ORAL ADMINISTRATION)
# Test Procedures: To each of a group of five ddY male mice, was orally administered a medicine dissolved or suspended in physiological saline. They were watched for 7 days after the administration and an estimated LD50 value was obtained.
Structure (SMILES),Swell suppression ratio to control group [1],Ratio of Increase of Pinna Thickness [2],estimated LD50 value [3]
CCOC(=O)Nc1nc(-c2ccc(S(C)(=O)=O)cc2)cs1 [drawing 12],47.6%,–,–
CS(=O)(=O)c1ccc(-c2csc(NC(=O)OCC(Cl)(Cl)Cl)n2)cc1 [drawing 10],30.0%,–,–
O=C(Nc1nc(-c2ccc([N+](=O)[O-])cc2)cs1)OCC(Cl)(Cl)Cl [drawing 5],–,36.1%,–
O=C(Nc1nc(-c2ccc([N+](=O)[O-])cc2)cs1)OCC(Cl)(Cl)Cl [drawing 9],45.0%,–,–
CS(=O)(=O)c1ccc(-c2csc(NC(=O)OCC(Cl)(Cl)Cl)n2)cc1 [drawing 6],–,37.8%,–
CCOC(=O)Nc1nc(-c2ccc(S(C)(=O)=O)cc2)cs1 [drawing 8],–,36.0%,–
CCOC(=O)Nc1nc(-c2ccc([N+](=O)[O-])cc2)cs1 [drawing 7],–,34.8%,–
"c1ccc([C@H]2CN3CCSC3=N2)cc1 [Levamisole.HCl, Levamisole hydrochloride, reference compound]",19.8%,31.2%,200 to 300 mg/kg
CCOC(=O)Nc1nc(-c2ccc([N+](=O)[O-])cc2)cs1 [drawing 11],71.4%,–,–
